# *1 amine or outer side, *2 acyl side, *3 side chain or, on linkers, in order; H or OH if unused. Where a SMILES comes first, the peptide text is derived from it. Bridges are numbered along the chain shown (N, C = ends). [ ]: non-standard residue; d: D form. Trp(1-CH2CO) = O=C([C@H](Cc1cn(CC(=O)[*:3])c2ccccc12)N[*:1])[*:2]; X15 = COc1cccc(B(O)O[*:3])c1CNC[C@H](N[*:1])C(=O)[*:2]; Hyp = O=C(O)[C@@H]1C[C@@H](O)CN1; NMeNle = CCCC[C@H](NC)C(=O)O; NMeA = CN[C@@H](C)C(=O)O; Dab = NCC[C@H](N)C(=O)O
# Target: PD-1/PD-L1 (Homo sapiens (Human), UniProt Q9NZQ7)
# Assay: PD-1/PD-L1 Homogenous Time-Resolved Fluorescence (HTRF) binding assay
# Details: PD-L1-His 10 nM, PD-1-Ig 20 nM; read-out: HTRF IC50
# Chain of PD-1/PD-L1 (Q9NZQ7 18-239): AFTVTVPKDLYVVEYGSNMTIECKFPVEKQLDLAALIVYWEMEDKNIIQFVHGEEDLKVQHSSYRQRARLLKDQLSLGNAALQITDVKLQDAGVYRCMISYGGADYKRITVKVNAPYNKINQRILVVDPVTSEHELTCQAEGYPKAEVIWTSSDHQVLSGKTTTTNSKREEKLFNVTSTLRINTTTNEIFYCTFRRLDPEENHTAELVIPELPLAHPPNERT
row,SMILES,IC50 [nM]
1,CCCC[C@H]1C(=O)N(C)[C@@H](CCCC)C(=O)N[C@@H](CC(C)C)C(=O)N[C@H](C(=O)NCC(N)=O)CSCC(=O)N[C@@H](Cc2ccc(O)cc2)C(=O)N(C)[C@@H](C)C(=O)N[C@@H](CC(N)=O)C(=O)N2CCC[C@H]2C(=O)N[C@H]2CNCc3c(OC)cccc3B(O)OC(=O)Cn3cc(c4ccccc43)C[C@H](NC(=O)[C@H](CCN)NC(=O)[C@H](Cc3c[nH]c4ccccc34)NC(=O)[C@@H]3C[C@@H](O)CN3C(=O)[C@H](CC(C)C)NC2=O)C(=O)N1C [Example 1012] ({CH2CO}-Y[NMeA]NP[X15]L[Hyp]W[Dab][Trp(1-CH2CO)][NMeNle][NMeNle]LCG-NH2; ester 5-10; thioether N-14),3
2,CCCC[C@H]1C(=O)N(C)[C@@H](CCCC)C(=O)N[C@@H](CC(C)C)C(=O)N[C@H](C(=O)NCC(N)=O)CSCC(=O)N[C@H]2Cc3ccc(cc3)OB(O)c3ccc(c(C(F)(F)F)c3)CNCC[C@@H]3NC(=O)[C@H](Cc4c[nH]c5ccccc45)NC(=O)[C@@H]4C[C@@H](O)CN4C(=O)[C@H](CC(C)C)NC(=O)[C@H](CNCc4ccc(cc4C(F)(F)F)B(O)OC(=O)Cn4cc(c5ccccc54)C[C@H](NC3=O)C(=O)N1C)NC(=O)[C@@H]1CCCN1C(=O)[C@H](CC(N)=O)NC(=O)[C@H](C)N(C)C2=O [Example 1030],11

# Reference: patent publication US20230365627A1, “MACROCYCLIC PEPTIDE BORONATE IMMUNOMODULATORS” (Bristol-Myers Squibb Company, priority 2020, published 2023)
